The values that follow come from US12030936B2, “Modulating the effects of gamma-c-cytokine signaling for the treatment of alopecia and alopecia associated disorders” (BIONIZ THERAPEUTICS, LLC, priority 2019, dated 2024).

The test system of one assay is IL-3. Kind of assay: PT-18β cell proliferation assay (WST-1), IL-3 as non-γc-cytokine negative control. It counts as cell-based, murine. To be noted: PT-18β cells, 1 nM cytokine, BNZ-γ as 1:20 or 1:60 dilution of HEK293T supernatant, 2 days. The source says: (§1) For each of the six γc-cytokines, indicator cell lines: NK92, a human NK cell line NK92 available by American Type Culture Collection (ATCC) (catalog #CRL-2407), CTLL-2, a murine CD8 T cells line available from ATCC, and PT-18, a murine mast cell line and its subclone PT-18β, is transfected with human IL-2Rβ gene to make the cells responsive to IL-2 and IL-15 (Tagaya et al., 1996, EMBO J. 15:4928-39), and is used to quantitatively determine the γc-cytokine's growth-promoting activity (See Current protocols in Immunology from Wiley and Sons for a methodological reference).
(§2) Once the appropriate doses of the cytokine that yield the 50% and 95% maximum response from the indicator cell line is determined, various concentrations (ranging from 1 pM to 10 μM) of the purified or synthesized custom derivative peptide is added to each well containing the cytokine and indicator cells. The reduction in light absorbance at 450 nm is used as an indicator of inhibition of cytokine-stimulated cellular proliferation. Typically, the cells are stimulated by the cytokines such that the absorbance of the well containing indicator cell line and the cytokine is between 2.0 and 3.0, which is reduced to a range of 0.1 to 0.5 by the addition of inhibitory peptides. […]
(§3) The growth-responses of the cells were determined 2 days after the introduction of BNZ-γ peptide and the cytokine using the WST-1 assay. […]

The next assay concerns IL-9. In words: PT-18β cell proliferation assay (WST-1), IL-9. It counts as cell-based, murine. To be noted: PT-18β cells, 1 nM cytokine, BNZ-γ as 1:20 or 1:60 dilution of HEK293T supernatant, 2 days.
Text: as §1, §2, §3

The next assay relates to IL-15. In words: PT-18β cell proliferation assay (WST-1), IL-15. It counts as cell-based, murine. The settings on record: PT-18β cells, 1 nM cytokine, BNZ-γ as 1:20 or 1:60 dilution of HEK293T supernatant, 2 days.
Text: as §1, §2, §3

In the next assay the test system is IL-4. In words: PT-18β cell proliferation assay (WST-1), IL-4. It counts as cell-based, murine. To be noted: PT-18β cells, 1 nM cytokine, BNZ-γ as 1:20 or 1:60 dilution of HEK293T supernatant, 2 days.
Text: as §1, §2, §3

Another assay deals with STAT5. Kind of assay: IL-15-stimulated tyrosine phosphorylation of STAT5 in PT-18β cells (anti-phospho-STAT5 immunoblot). Type of assay: cell-based, murine. The settings on record: PT-18β cells stimulated by IL-15, presence vs absence of BNZ-γ peptide. From the text:
In addition to stimulating cellular proliferation, binding of the γc-cytokines to their receptors causes a diverse array of intracellular events. (Rochman et al. 2009 Nat. Rev. Immunol. 9:480-90, Pesu et al. 2005 Immunol. Rev. 203:127-142.) Immediately after the cytokine binds to its receptor, a tyrosine kinase called Jak3 (Janus-kinase 3) is recruited to the receptor at the plasma membrane. This kinase phosphorylates the tyrosine residues of multiple proteins including the γc-subunit, STAT5 (Signal Transducer and Activator of Transcription 5) and subunits of the PI3 (Phosphatidylinositol 3) kinase. Among these, the phosphorylation of STAT5 has been implicated in many studies as being linked to the proliferation of cells initiated by the γc-cytokine. (Reviewed in Hennighausen and Robinson, 2008 Genes Dev. 22:711-21.) In accordance with these published data, whether or not the BNZ-γ peptide inhibits the tyrosine phosphorylation of STAT5 molecule in PT-18β cells stimulated by IL-15 was examined (results shown in FIG. 4).
PT-18β cells were stimulated by IL-15 in the presence or absence of BNZ-γ peptide. Cytoplasmic proteins were extracted from the cells according to a conventional method as described in Tagaya et al. 1996 EMBO J. 15:4928-39. […]

Assay [1] concerns humanized NSG mice. In words: Immunohistochemistry of humanized NSG mouse skin tissue for human CD8 T cells. Type of assay: in vivo. The settings on record: 7-weeks post-transplant with vs without BNZ-γ treatment. The method, then:
In order to characterize the nature of immune attack in the skin tissue and around the hair follicles, immunohistochemistry studies were conducted of the skin tissue of humanized NSG mice 3-weeks (pre-BNZ-γ) and 7-weeks (with or without BNZ-γ treatment) after transplantation of 2 million huPBMCs. The tissue was fixed for 24 hours in 4% formalin (Sigma) and then moved to 70% ethanol for at least 24 hours before being processed. Tissue was then embedded in paraffin following dehydration for two washes of two hours each in 70%, 90%, and 100% ethanol, then cleared in xylene twice for two hours each, and infiltrated with melted paraplast plus at 60 C two times for two hours. Paraffin embedded tissues were stored at room temperature prior to sectioning and staining. An anti-human CD8 antibody (BioCare Medical CRM 311C) or isotype control was used for staining of the tissues based on the standard procedure for IHC.

The subject of assay [2] is humanized NSG mice.
Experimental: In this experiment, NSG mice were transplanted with 2 million huPBMCs on study day 0, with therapeutic treatment beginning 35-days post-transplant. Mice were treated twice weekly with IV injections of PBS control (n=5), BNZ-γ at 2 mg/kg (n=5), anti-IL-2 antibody at 5 mg/kg (n=3), anti-IL-15 antibody at 5 mg/kg (n=3), or combination anti-IL-2 and anti-IL-15 antibody each at 5 mg/kg (n=3) starting on day 35 for a treatment duration of 4 weeks.
Levels of IL-6 and IFNγ were also measured in this experiment. […] Cytokine levels were determined using sera collected on day 50, except for one animal in the anti-IL-2 antibody treatment group (collected on day 45), one mouse in the PBS control untreated group (collected on day 45), and two mice from the PBS control untreated group (collected on day 40) to ensure a blood sample was collected before each became fatally ill.
The mark [3] stands for this setting: sera collected on day 50 (some earlier), vs PBS control.

“I-K-E-F-L-Q-R-F-I-H-I-V-Q-S-I-I-N-T-S (IKEFLQRFIHIVQSIINTS) [BNZ-γ]”: in the assay with IL-3, the “growth-promoting activity of IL-3” value was “not inhibited”. Besides, the “growth-promoting activity of IL-9” value in the assay on IL-9 is recorded as “significantly (p<0.01 Student's T test) reduced”. The “growth-promoting activity of IL-15” value with IL-15 is “significantly (p<0.01 Student's T test) reduced”. In addition, the “cellular proliferation stimulated by IL-4” value with IL-4 is on record as “not affected”. Moreover, the “tyrosine phosphorylation of STAT5” value in the assay with STAT5 is on record as “markedly reduced”. The “number of infiltrated human CD8 T cells in skin tissue” value in the assay on humanized NSG mice [1] is listed as “significant reduction in the number of infiltrated CD8 cells”. Further, the “survival of the BNZ-γ group relative to combination antibody treatment” value with humanized NSG mice [2] (BNZ-γ 2 mg/kg IV twice weekly, 4 weeks from day 35, the words are printed of the combination, BNZ-γ being the more effective (p=0.001)) was “less effective than BNZ-γ”. Besides, in the assay on humanized NSG mice [2] (approximately two weeks after treatment was completed (~day 63), 4-week treatment from day 35), the regrowth of hair result is recorded as “greatest degree of hair regrowth of all 4 treatment groups”. Also, in the assay with humanized NSG mice [2] (setting [3]), the “level of IFNγ in sera” value is “most effective” and the “level of IL-6 in sera” value is on record as “most effective”.
